# According to patent US20200292528A1, “CELL CHEMOTAXIS ASSAYS” (The General Hospital Corporation, priority 2013, published 2020):
# What was measured:
# neutrophils [1] = test: Microfluidic neutrophil chemotaxis assay, healthy donor whole blood (finger prick, venous) and isolated neutrophils; type: cell-based, human; details: for neutrophils recruited from finger prick whole blood (count): average of 16 attractant chambers
# Method: Capillary blood (50 μL) was collected by pricking a finger of healthy volunteers. The blood was then pipetted into an eppendorf tube containing a mixed solution of HBSS media, heparin anti-coagulant (1.65 USP/50 μL of blood), and Hoescht stain (10 μL, 32.4 μM). […] Louis, Mo.) or Leukotriene B4 (LTB4) (Caymen Chemicals, Ann Arbor, Mich.) [100 nM] immediately after the PDMS donut-shaped device was bonded to the well plate. The chemoattractant solution also contained fibronectin [25 nM] (Sigma-Aldrich, St. Louis, Mo.) to promote neutrophil surface adhesion. The chemoattractant was pipetted into the whole blood loading chamber (WBLC) and directly around the circumference of the device. […] Afterwards, the central whole-blood loading chamber and the outside region surrounding the donut were washed thoroughly with Phosphate Buffered Saline (PBS) in each well to wash away excess chemoattractant. The wells of the plate were then filled with RPMI 1640 media and allowed to sit for a period of 15 minutes to generate stable chemoattractant gradients. […] Capillary blood (50 μL) was collected by pricking a finger of healthy volunteers. The blood was then pipetted into an eppendorf tube containing a mixed solution of HBSS media, heparin anti-coagulant (1.65 USP/50 μL of blood), and Hoescht stain (10 μL, 32.4 μM). […] For venous blood samples, 10 mL of peripheral blood was drawn from a health volunteer into tubes containing 33 US […] (Vacutainer, Becton Dickinson, Franklin Lakes, N.J.). […] To compare the whole blood results with neutrophil migration from an isolated sample, we also isolated human neutrophils from whole blood using HetaSep followed by the EasySep Human Neutrophil Enrichment Kits (STEMCELL Technologies Inc. Vancouver, Canada) following the manufacturer's protocol. […] Louis, Mo.) at a density of 40,000 cells/μL and kept at 37° C. cell until devices were properly primed. […] Directionality of primed neutrophils was quantified by counting the number of cells that followed the chemotactic gradient and turned at the bifurcation toward the chemoattractant chamber as opposed to the number of cells that exited the device to the peripheral region. Cell velocities were calculated using Image J (NIH) and data analysis with GraphPad Prism. Neutrophil migration toward different attractants (fMLP and LTB4) was also examined. […] The concentrations of the three different chemoattractants were varied from 10 nM to 50 nM to 100 nM. Solutions containing fibronectin [25 nM] and exclusive of fibronection were prepared. Finger prick blood and venous blood were obtained as described above in Example 3.
# neutrophils [2] = test: Microfluidic neutrophil chemotaxis assay, blood of a burn patient (24% TBSA) over 3 weeks; type: cell-based, human; details: for neutrophil accumulation counts versus healthy volunteer: three weeks post-burn
# Method: Blood samples of 1 mL were collected from one burn patient suffering from 24% total body surface area (TBSA) burn. Procedures for fabricating the device, preparing the chemoattractant gradient, and performing time-lapse imaging were conducted as explained above with respect to examples 2-4.
# Neutrophil chemotaxis was monitored over a 3 week treatment period. FIG. 10A is a plot of neutrophil migration counts in the attractant chamber with no chemoattractant gradient, with fMLP chemoattractant gradient [100 nM], and with LTB4 chemoattractant gradient [100 nM]. FIG. 10B is a plot of velocity [μm/min] of neutrophils migrating to LTB4 compared with fMLP over a three week period. FIG. 10C is a plot of directionality index of neutrophils migrating to LTB4 compared with fMLP. All graphs correspond to average cell counts across 16 attractant chambers.
# human neutrophils = test: Inter-species microfluidic neutrophil chemotaxis from one droplet of whole blood: human; type: cell-based; details: for percentage of neutrophils that migrated: 2 μL whole blood
# Method: (§1) The microfluidic device to study mouse, rat and human neutrophil chemotaxis from one droplet of whole blood was designed with three main components: focal chemoattractant chambers (FCCs) (200×200 μm), a central whole-blood loading chamber, and migration channels containing RBC filtering regions. The filter for each migration channel included 10 short channels (Length ˜75 μm) with a 3.5 μm narrowing region (‘pinch’) connected horizontally through an approximately 200-μm-long channel to create 90° bending sections capable of trapping the RBCs to prevent them from dispersing into the rest of the migration channel. All migration channels were designed to be 12 μm wide and 3 μm high to establish only a single column of RBCs for efficient trapping while allowing active mouse, rat and human neutrophils to easily migrate through. The devices were fabricated as described above in Example 2.
# (§2) For humans, 50 μL of capillary blood was collected by pricking a finger of healthy volunteers. For mice, 50 μL of capillary blood was collected by the facial vein method (Institutional animal care and use Protocol #2007N000136) requiring no anesthesia. For rats, 50 μL of venous blood was collected from the tail vein (Institutional animal care and use Protocol #2012N000034) using 1-2% Isoflurane inhalant. The blood was then pipetted into an eppendorf tube containing a mixed solution of HBSS media, heparin anti-coagulant (1.65 USP/50 μL of blood), and Hoechst stain (10 μL, 32.4 μM). The eppendorf tube was then incubated for 10 minutes at 37° C. and 5% CO2 to allow for proper staining of the nuclei.
# (§3) All reagents and whole blood were pipetted into the device and there was no flow or requirement of external syringe pump. A gradient of the chemoattractant was established along the migration channels by diffusion between the chemoattractant chambers and the central loading chamber. Prior to cell loading and immediately after bonding to the well plate, donut-shaped devices were filled with the chemoattractant solution containing 25 nM of fibronectin (Sigma-Aldrich, St. Louis, Mo.). The well plate was then placed in a desiccator under vacuum to de-gas for 15 minutes to ensure proper filling of the chambers while the PDMS surface was still hydrophilic. Afterwards, the central whole-blood loading chamber and the outside region surrounding the donut were washed thoroughly in each well to establish the gradient along the migration channels. The wells of the plate were then filled with RPMI 1640 media and allowed to sit for a period of 15 minutes to generate stable chemoattractant gradients. Finally, using a gel-lading tip, 2 μL of whole blood was slowly pipetted into the central whole-blood loading chamber.
# (§4) Time-lapse imaging was performed on a Nikon Eclipse Ti microscope with 10-15× magnification and a biochamber heated to 37° C. with 5% CO2 and 80% humidity. […] For each experiment, at least 50 neutrophils were manually tracked. Directionality of primed neutrophils was quantified by counting the number of cells that followed the chemotactic gradient and turned at the bifurcation toward the chemoattractant chamber as opposed to the number of cells that exited the device to the peripheral region. Cell velocities were calculated using ImageJ (NIH). Total percentage of neutrophils to migrate was estimated using a COMSOL simulation model that estimated that 30.6% of area in whole blood loading chamber from which neutrophils could migrate in experimental time to be above critical gradient concentration. For an average human experiment, this would estimate ˜277 neutrophils per well that are exposed to chemoattractant gradient.
# Wistar rat neutrophils = test: Inter-species microfluidic neutrophil chemotaxis from one droplet of whole blood: Wistar rat; type: cell-based; details: for percentage of neutrophils that migrated: Wistar rat whole blood
# Method: as §1, §2
# All reagents and whole blood were pipetted into the device and there was no flow or requirement of external syringe pump. A gradient of the chemoattractant was established along the migration channels by diffusion between the chemoattractant chambers and the central loading chamber. Prior to cell loading and immediately after bonding to the well plate, donut-shaped devices were filled with the chemoattractant solution containing 25 nM of fibronectin (Sigma-Aldrich, St. Louis, Mo.). The well plate was then placed in a desiccator under vacuum to de-gas for 15 minutes to ensure proper filling of the chambers while the PDMS surface was still hydrophilic. […]
# Time-lapse imaging was performed on a Nikon Eclipse Ti microscope with 10-15× magnification and a biochamber heated to 37° C. with 5% CO2 and 80% humidity. […] Directionality of primed neutrophils was quantified by counting the number of cells that followed the chemotactic gradient and turned at the bifurcation toward the chemoattractant chamber as opposed to the number of cells that exited the device to the peripheral region. Cell velocities were calculated using ImageJ (NIH). […]
# mouse neutrophils = test: Inter-species microfluidic neutrophil chemotaxis from one droplet of whole blood: C57BL/6 and Sv129S6 mice; type: cell-based; details: for directionality of Sv129S6 mouse neutrophils compared with humans: Sv129S6 mouse versus human
# Method: as §1, §2, §3, §4
# [3] = 1 week after burn, 100 nM gradient, versus healthy volunteer
molecule,measurement,setting,value
"CCCCC/C=C\C[C@@H](O)/C=C/C=C/C=C\[C@@H](O)CCCC(=O)O [LTB4, Leukotriene B4]",neutrophils recruited from finger prick whole blood (count),"neutrophils [1]; 100 nM gradient, after 200 min",39±12 cells/device
same,neutrophil velocity,neutrophils [1]; finger prick whole blood,20±7 μm/min
same,neutrophil accumulation counts versus healthy volunteer,neutrophils [2],in the normal range
same,reduction in neutrophil velocity,neutrophils [2]; two weeks post-burn,40%
same,percentage of neutrophils that migrated,human neutrophils,54.0±5.6%
same,percentage of neutrophils that migrated,Wistar rat neutrophils,2.8±1.1%
same,percentage of neutrophils that migrated,mouse neutrophils; C57BL/6 mouse whole blood,52.7±24%
same,directionality of Sv129S6 mouse neutrophils compared with humans,mouse neutrophils,comparable
same,percentage of neutrophils that migrated,mouse neutrophils; Sv129S6 mouse whole blood,99.5±13%
"CSCC[C@H](NC=O)C(=O)N[C@@H](CC(C)C)C(=O)N[C@@H](Cc1ccccc1)C(=O)O [fMLP, N-formyl-methionyl-leucyl-phenylalanine]",neutrophils recruited from finger prick whole blood (count),"neutrophils [1]; 100 nM gradient, after 200 min",86±7 cells/device
same,neutrophil accumulation numbers,"neutrophils [1]; 100 nM gradient, after 3.5 hours, venous, finger prick and isolated neutrophil sources",around 135±20 cells/device
same,average neutrophil migration counts in 6 separate devices,"neutrophils [1]; 100 nM gradient, finger prick whole blood of one healthy donor, after 200 min",83±12 cells
same,"neutrophil migration counts per chamber, average of healthy donors","neutrophils [1]; 100 nM gradient, finger prick whole blood, after 200 min, 5 out of 7 donors clustered around it",92±35 cells
same,time until neutrophils began migrating towards the gradient,"neutrophils [1]; 100 nM gradient, venous and finger prick whole blood and isolated neutrophils",≤ 20 min
same,neutrophil count recruited relative to LTB4,"neutrophils [1]; 100 nM gradients, finger prick whole blood, 200 min",two-fold higher count
same,neutrophil velocity,neutrophils [1]; finger prick whole blood,19 ±6 μm/min
same,reduction in directionality,neutrophils [2]; [3],50%
same,reduction in neutrophil velocity,neutrophils [2]; [3],75%
same,neutrophil accumulation counts versus healthy volunteer,neutrophils [2],lower than the average healthy volunteer count
same,"number of cells accumulating, above the normal healthy volunteer range","neutrophils [2]; two weeks post burn, patient had fever",15%
same,reduction in neutrophil velocity,neutrophils [2]; two weeks post-burn,60%
same,directional index of neutrophils,human neutrophils,0.85±0.06
same,velocity of neutrophils towards the chemoattractant,human neutrophils,23.4±5.4 μm/min
same,percentage of neutrophils that migrated,human neutrophils,55.8±19.8%
same,percentage of neutrophils that migrated,Wistar rat neutrophils,10.9±8.5%
same,directional index of neutrophils,Wistar rat neutrophils; rat,0.62±0.12
same,velocity of neutrophils towards the chemoattractant,Wistar rat neutrophils; rat,26.2±5.9 μm/min
same,directional index of neutrophils,mouse neutrophils; C57BL/6 mouse,0.61±0.07
same,velocity of neutrophils towards the chemoattractant,mouse neutrophils; C57BL/6 mouse,13±7.4 μm/min
same,"velocity of C57BL/6 neutrophils, fold lower than Sv129S6, rat or human","mouse neutrophils; C57BL/6 mouse versus Sv129S6, rat, human",~2.5 fold
same,directional index of neutrophils,mouse neutrophils; Sv129S6 mouse,0.82±0.06
same,velocity of neutrophils towards the chemoattractant,mouse neutrophils; Sv129S6 mouse,19.7±8.7 μm/min
fibronectin,effect of inclusion in the chemoattractant solution on final neutrophil counts migrating towards fMLP,"neutrophils [1]; 25 nM, pin prick and venous blood",does not appear to change final neutrophil counts
"C5a: the protein fragment C5a, neutrophil attractant (protein, UniProt P01031 678-751, looked up, C5a anaphylatoxin, the protein fragment C5a, neutrophil attractant) C5a anaphylatoxin: TLQKKIEEIAAKYKHSVVKKCCYDGACVNNDETCEQRAARISLGPRCIKAFTECCVVASQLRANISHKDMQLGR",percentage of neutrophils activated,human neutrophils,63.3±7.6%
same,percentage of neutrophils that migrated in response to the chemoattractant in the FCC,human neutrophils,26.8±5.9%
same,percentage of neutrophils activated,mouse neutrophils; Sv129S6 mouse,18.3±3%
same,directionality of Sv129S6 mouse neutrophils compared with humans,mouse neutrophils,lower than in humans
same,migration pattern of activated mouse neutrophils,mouse neutrophils; mouse,random migration
same,percentage of neutrophils that migrated in response to the chemoattractant in the FCC,mouse neutrophils; mouse (Sv129S6),1±0.8%
